# According to PMC3731299, “Isoniazid Inhibits the Heme-Based Reactivity of Mycobacterium tuberculosis Truncated Hemoglobin N” (PLoS ONE, 2013):
# Where two headings read alike, the source gives them in different places. Marks after values point to notes of the source that are not given here.
# Assays:
# Mt-trHbN(III) [1] = target: T1, Mt-trHbN(III) (Mycobacterium tuberculosis, UniProt P9WN25); assay: Peroxynitrite isomerization by Mt-trHbN(III) in the absence and presence of isoniazid; assay type: biochemical; conditions: [azide] >10×H
# T1 construct: made in house
# Protocol: Rapid-mixing experiments were performed using either the SX18.MV stopped-flow apparatus (Applied Photophysics, Salisbury, United Kingdom) or the SFM-20 stopped-flow apparatus (Bio-Logic SAS, Claix, France); the dead time was 1.0 ms.
# Kinetics of peroxynitrite isomerization by Mt-trHbN(III) in the absence and presence of isoniazid was recorded spectrophotometrically at 302 nm (ε302 nm = 1.705×10^3 M^−1 cm^−1) [60]–[67] in the absence and presence of Mt-trHbN(III) (final concentration 2.5×10^−6 – 1.0×10^−5 M) and isoniazid (final concentration 3.0×10^−5 – 4.0×10^−4 M) by rapid mixing the Mt-trHbN(III) or buffer solution with the peroxynitrite solution (final concentration 2.5×10^−4 M).
# Kinetics of peroxynitrite isomerization by Mt-trHbN(III) in the absence and presence of isoniazid was analyzed in the framework of the minimum reaction mechanism depicted by Scheme D [60]–[67]: [drawing 11] (D)
# Values of the pseudo-first-order rate constant for Mt-trHbN(III)-mediated peroxynitrite isomerization (i.e., l ^obs) were determined in the absence and presence of isoniazid according to Equation 8 [60]–[67]: [drawing 12] (8)
# Values of the second-order rate constant for Mt-trHbN(III)-mediated peroxynitrite isomerization (i.e., l on) and of the first-order rate constant for peroxynitrite isomerization in the absence of Mt-trHbN(III) (i.e., l 0) were determined from the linear dependence of l ^obs values on the Mt-trHbN(III) concentration according to Equation 9 [60]–[67]: [drawing 13] (9)
# The value of K for isoniazid binding to Mt-trHbN(III) was determined from the dependence of l on the drug concentration (i.e., 3.0×10^−5 M ≤ [isoniazid] ≤4.0×10^−4 M) according to Equation 11 [60]–[67]: [drawing 15] (11) where l on ^app is the value of l on in the presence of isoniazid.
# Sperm whale Mb(III) = conditions: pH 7.0, 25.0°C, cited from earlier work
# Mt-trHbN(III) [2] = target: T1, Mt-trHbN(III); assay type: biochemical
# Mt-trHbN(III) [3] = target: T1, Mt-trHbN(III); assay: biochemical; assay type: binding; conditions: pH 7
# [4] = absence of Mt-trHbN(III), isoniazid and azide
smiles,measurement,setting,value
[N-]=[N+]=[N-] [azide],Mt-trHbN(III) catalysis of peroxynitrite isomerization,Mt-trHbN(III) [1],does not catalyze the isomerization of peroxynitrite
same,h off for azide binding to sperm whale Mb(III),Sperm whale Mb(III),h off = 3.0×10^−1 s^−1 ^d
same,h on for azide binding to sperm whale Mb(III),Sperm whale Mb(III),h on = 4.4×10^3 M^−1 s^−1 ^d
same,Kd,Sperm whale Mb(III); read-out: H for azide binding to sperm whale Mb(III),50 µM
same,average yield of NO2 –,Mt-trHbN(III) [2],26%
same,average yield of NO3 –,Mt-trHbN(III) [2],74%
same,NO2 –,Mt-trHbN(III) [2]; pH 7,26±4%
same,NO3 –,Mt-trHbN(III) [2]; pH 7,73±7%
same,NO3 – + NO2 –,Mt-trHbN(III) [2]; pH 7,99%
same,first-order dissociation rate constant h off,Mt-trHbN(III) [3],h off = (7.1±0.8)×10^−1 s^−1
same,second-order association rate constant h on,Mt-trHbN(III) [3],h on = (9.6±1.1)×10^3 M^−1 s^−1
same,Kd,Mt-trHbN(III) [3]; read-out: H calculated from kinetic parameters (h off/h on),74 µM
same,Kd,Mt-trHbN(III) [3]; read-out: dissociation equilibrium constant H for azide binding to Mt-trHbN(III),73 µM
same,average yield of NO2 –,[4],29%
same,average yield of NO3 –,[4],72%
same,NO2 –,pH 7,27±6%
same,NO3 –,pH 7,74±5%
same,NO3 – + NO2 –,pH 7,101%
